The source of these data is PubChem BioAssay (NCI).

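Briefly, cells in 96-well plates were exposed to five compound concentrations for 48 h, and endpoints were estimated by linear interpolation. GI50 = concentration required for 50% inhibition of growth. TGI denotes the concentration required for complete inhibition of growth.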 A value given as a limit tells only on which side of the number the result lay.

The GI50 is the concentration that inhibits growth by half. As a reminder, the TGI is the concentration giving total growth inhibition. Low values mean greater sensitivity of the cells, high ones lower sensitivity of the cells.

Among the test systems are A498 renal; MCF7 breast; UACC-257 melanoma; OVCAR-3 ovarian; SF-295 CNS; HOP-92 NSCLC; NCI-H460 lung; A549 NSCLC; SF-268 CNS; SNB-19 CNS.
Holding throughout (experiment): DTP human tumour cell line panel, 48 h

As for `Cn1c(=O)c(Oc2ccc(F)cc2F)cc2cnc(NC3CCC(O)CC3)nc21` (stereo not given), the GI50 is 5.89 µM with A498 renal; over 25 µM with MCF7 breast; over 25 µM in the assay on UACC-257 melanoma; over 25 µM with OVCAR-3 ovarian; over 25 µM with SF-295 CNS; 0.779 µM in the assay with HOP-92 NSCLC. Further, the GI50 with NCI-H460 lung, in the assay on A549 NSCLC, with SF-268 CNS and in the assay on SNB-19 CNS was over 25 µM in each case. Besides, the TGI with A498 renal is over 25 µM; in the assay with MCF7 breast it was over 25 µM; with UACC-257 melanoma, over 25 µM; in the assay with OVCAR-3 ovarian it was over 25 µM; in the assay on SF-295 CNS, over 25 µM; with HOP-92 NSCLC, 19.3 µM. Also, the TGI in the assay on NCI-H460 lung, in the assay on A549 NSCLC, in the assay with SF-268 CNS and in the assay with SNB-19 CNS was over 25 µM each time.

Consider `COC(=O)c1ccccc1NCc1cc(O)ccc1O`, for which the TGI was over 89.2 µM with A498 renal; 38 µM with MCF7 breast; 31.2 µM in the assay with UACC-257 melanoma; 32.5 µM in the assay on OVCAR-3 ovarian; 33.3 µM in the assay with SF-295 CNS; 35.3 µM in the assay on HOP-92 NSCLC. For the same molecule, the TGI with NCI-H460 lung was over 31.6 µM; in the assay with A549 NSCLC it was over 83.1 µM; in the assay on SF-268 CNS, over 77.4 µM; in the assay on SNB-19 CNS it was over 74.1 µM.

Consider `COC(=O)/C(=C/c1ccc(OC)cc1)c1cc(OC)c(OC)c(OC)c1`, for which the total growth inhibition concentration (TGI) in the assay on A498 renal is over 39 µM; with MCF7 breast, over 100 µM; in the assay on UACC-257 melanoma, over 84.3 µM; in the assay on OVCAR-3 ovarian, 2.63 µM; in the assay with SF-295 CNS, 8.02 µM; with HOP-92 NSCLC it was over 55.9 µM. Also, the TGI in the assay on NCI-H460 lung is 45.9 µM; with A549 NSCLC it was over 100 µM; in the assay on SF-268 CNS it was over 79.1 µM; in the assay on SNB-19 CNS, 98 µM.

Take `CC(C)(CCc1nc2ccccc2[nH]1)C(=O)O`: the total growth inhibition concentration (TGI) with A498 renal, with MCF7 breast, with UACC-257 melanoma, in the assay with OVCAR-3 ovarian, in the assay on SF-295 CNS and with HOP-92 NSCLC was over 100 µM throughout. Moreover, the TGI with NCI-H460 lung, in the assay with A549 NSCLC, in the assay with SF-268 CNS and in the assay with SNB-19 CNS was over 100 µM in each case.

Turning to `O=C1C(=O)c2c(ccc3ccccc23)-c2ccccc21`, the GI50 with A498 renal is 10.4 µM; in the assay with MCF7 breast it was 1.53 µM; with UACC-257 melanoma, 1.74 µM; in the assay with OVCAR-3 ovarian it was 0.25 µM; with SF-295 CNS it was 1.92 µM; in the assay on HOP-92 NSCLC, 1.91 µM. Further, the GI50 with NCI-H460 lung was 1.6 µM; in the assay on A549 NSCLC it was 2.83 µM; in the assay on SF-268 CNS, 1.77 µM; in the assay with SNB-19 CNS it was 2.43 µM. For the same molecule, the concentration for total growth inhibition (TGI) in the assay on A498 renal came out at 26 µM; with MCF7 breast it was 3.48 µM; in the assay with UACC-257 melanoma it was 4.07 µM; with OVCAR-3 ovarian, 0.713 µM; in the assay on SF-295 CNS, 4.6 µM; in the assay on HOP-92 NSCLC, 5.52 µM. Besides, the TGI in the assay on NCI-H460 lung came out at 3.08 µM; in the assay with A549 NSCLC it was 8.3 µM; in the assay on SF-268 CNS, 5.73 µM; in the assay on SNB-19 CNS it was 7.97 µM.

As to `CC(C)C12CCC3(CCC4C(C)(C(=O)O)CCCC4(C)C3C1)C(CN)C2` (stereo not given), the TGI with A498 renal is 98.4 µM; with MCF7 breast, over 100 µM; in the assay on UACC-257 melanoma it was over 100 µM; with OVCAR-3 ovarian, over 100 µM; in the assay on SF-295 CNS, over 100 µM; in the assay with HOP-92 NSCLC it was over 100 µM. For the same molecule, the TGI with NCI-H460 lung is 52.3 µM; with A549 NSCLC it was over 100 µM; in the assay on SF-268 CNS it was over 100 µM; in the assay with SNB-19 CNS, over 100 µM.

On to `CC(=O)OC1CCC2(C)C(=CCC3C4CC(CN5CC5)C(=O)C4(C)CCC32)C1` (stereo not given), for which the GI50 is 11.4 µM with A498 renal; 0.67 µM in the assay on MCF7 breast; 12.9 µM with UACC-257 melanoma; 4.63 µM with OVCAR-3 ovarian; 22 µM in the assay on SF-295 CNS; 11.3 µM with HOP-92 NSCLC. Also, the GI50 in the assay with NCI-H460 lung was 12.2 µM; in the assay on A549 NSCLC, 15.3 µM; in the assay on SF-268 CNS it was 13.9 µM; in the assay on SNB-19 CNS, 14.1 µM. Further, the total growth inhibition concentration (TGI) in the assay with A498 renal is 24.9 µM; in the assay with MCF7 breast it was 2.68 µM; with UACC-257 melanoma, 26.4 µM; with OVCAR-3 ovarian, 14.8 µM; in the assay with SF-295 CNS it was over 55.4 µM; with HOP-92 NSCLC, 24.1 µM. In addition, the TGI in the assay on NCI-H460 lung worked out at 29.5 µM; in the assay on A549 NSCLC, 42.2 µM; in the assay on SF-268 CNS it was 28.2 µM; in the assay with SNB-19 CNS it was 29.5 µM.

Regarding `Brc1ccc2c(c1)-c1ccccc1C1=NCCN12`, the GI50 in the assay with A498 renal was 0.866 µM; with MCF7 breast, 0.552 µM; in the assay on UACC-257 melanoma it was 1.59 µM; with OVCAR-3 ovarian it was 2.08 µM; in the assay with SF-295 CNS it was 0.984 µM; with HOP-92 NSCLC, 1.33 µM. Moreover, the GI50 was 0.399 µM in the assay with NCI-H460 lung, 0.548 µM in the assay on A549 NSCLC, 1.77 µM in the assay with SF-268 CNS and 2.17 µM with SNB-19 CNS. For the same molecule, the TGI is 2.36 µM with A498 renal; 10.9 µM with MCF7 breast; 4.51 µM in the assay on UACC-257 melanoma; 8.04 µM with OVCAR-3 ovarian; 4 µM with SF-295 CNS; 5.74 µM in the assay with HOP-92 NSCLC. Also, the TGI in the assay with NCI-H460 lung was 2.71 µM; in the assay on A549 NSCLC, 3.58 µM; in the assay on SF-268 CNS, 9.44 µM; with SNB-19 CNS, 11.6 µM.

With `CC1=C(C(=O)OC(C)(C)C)C(c2ccc([N+](=O)[O-])cc2)C(C(=O)OC(C)(C)C)=C(C)N1`, the total growth inhibition concentration (TGI) is 37.6 µM in the assay on A498 renal; 31.8 µM in the assay with MCF7 breast; 40.6 µM in the assay with UACC-257 melanoma; 36.7 µM in the assay with OVCAR-3 ovarian; 46.2 µM with SF-295 CNS; 29.7 µM in the assay on HOP-92 NSCLC. Besides, the TGI is 38.6 µM in the assay on NCI-H460 lung, 52.3 µM with A549 NSCLC, 56.4 µM with SF-268 CNS and 75.8 µM in the assay on SNB-19 CNS.

Regarding `C/C(=N\NC(=O)c1ccncc1)c1ccccc1O`, the GI50 with A498 renal is 29 µM; in the assay on MCF7 breast, 3.72 µM; in the assay with UACC-257 melanoma it was 4.14 µM; in the assay with OVCAR-3 ovarian it was 3.35 µM; in the assay with SF-295 CNS, 1.38 µM; in the assay with HOP-92 NSCLC it was 2.27 µM. The GI50 with NCI-H460 lung is 0.683 µM; in the assay on A549 NSCLC, 3.86 µM; in the assay with SF-268 CNS, 3.77 µM; in the assay with SNB-19 CNS it was 8.23 µM. Moreover, the TGI in the assay on A498 renal, in the assay on MCF7 breast, in the assay on UACC-257 melanoma, in the assay with OVCAR-3 ovarian, in the assay with SF-295 CNS and in the assay with HOP-92 NSCLC was over 100 µM throughout. For the same molecule, the TGI in the assay with NCI-H460 lung, with A549 NSCLC, in the assay with SF-268 CNS and with SNB-19 CNS was over 100 µM each time.
